Our source for the IC50 values is patent publication US20040082635A1, “Fused cyclic compounds and medicinal use thereof” (priority 2001, published 2004).

Where a name gives a salt, the structure may show the parent alone.

This experiment deals with T1, HCV polymerase (Hepatitis C virus genotype 1b, UniProt P26663).
T1 construct: a region encoding NS5B (591 amino acids; J Virol 1991 Mar, 65(3), 1105-13) was amplified by PCR; 6 His (N); made in house; host or cells: Escherichia coli
T1 sequence (P26663 2420-3010): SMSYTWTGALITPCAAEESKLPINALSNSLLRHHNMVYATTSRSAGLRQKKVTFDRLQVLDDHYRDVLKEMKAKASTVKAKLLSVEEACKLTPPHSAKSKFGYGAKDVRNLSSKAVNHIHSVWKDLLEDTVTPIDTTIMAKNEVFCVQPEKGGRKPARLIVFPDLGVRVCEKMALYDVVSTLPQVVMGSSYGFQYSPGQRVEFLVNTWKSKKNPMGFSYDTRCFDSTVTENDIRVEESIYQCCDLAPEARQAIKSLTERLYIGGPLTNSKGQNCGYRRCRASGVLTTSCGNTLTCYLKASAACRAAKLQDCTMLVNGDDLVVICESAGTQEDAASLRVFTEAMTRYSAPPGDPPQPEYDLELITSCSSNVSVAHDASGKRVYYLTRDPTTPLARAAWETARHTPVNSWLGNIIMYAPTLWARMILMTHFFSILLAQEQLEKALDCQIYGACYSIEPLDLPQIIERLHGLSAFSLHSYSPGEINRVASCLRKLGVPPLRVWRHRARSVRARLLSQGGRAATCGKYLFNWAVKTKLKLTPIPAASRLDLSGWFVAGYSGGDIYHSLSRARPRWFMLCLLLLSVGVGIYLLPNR
Description: biochemical. The conditions noted are these: read-out: HCV polymerase inhibitory activity IC50.
For the compound `O=C(O)c1ccc2c(c1)nc(-c1ccc(Oc3ccccc3-c3ccccc3)cc1)n2C1CCCCC1` [Example 153, 2-[4-(2-biphenylyloxy)phenyl]-1-cyclohexylbenzimidazole-5-carboxylic acid], the IC50 (commonly the concentration that inhibits the measured activity by half) was found to be 190 nM.

As to `O=C(O)c1ccc2c(c1)nc(-c1ccc(Oc3cccc(-c4ccccc4)c3)cc1)n2C1CCCCC1` [Example 154, 2-[4-(3-biphenylyloxy)phenyl]-1-cyclohexylbenzimidazole-5-carboxylic acid], the IC50 is 76 nM.

In the case of `CC(C)(C)OC(=O)N1CCC(COc2ccccc2Oc2ccc(-c3nc4cc(C(=O)O)ccc4n3C3CCCCC3)cc2)CC1` [Example 155, 2-{4-[2-{(1-tert-butoxycarbonyl-4-piperidyl)methoxy}phenoxy]-phenyl}-1-cyclohexylbenzimidazole-5-carboxylic acid], the IC50 is 530 nM.

`CC(C)(C)OC(=O)N1CCC(COc2cccc(Oc3ccc(-c4nc5cc(C(=O)O)ccc5n4C4CCCCC4)cc3)c2)CC1` [Example 156, 2-{4-[3-{(1-tert-butoxycarbonyl-4-piperidyl)methoxy}phenoxy]-phenyl}-1-cyclohexylbenzimidazole-5-carboxylic acid]: the IC50 is 230 nM.

For `O=C(O)c1ccc2c(c1)nc(-c1ccc(Oc3ccccc3OCC3CCNCC3)cc1)n2C1CCCCC1` [Example 160, 1-cyclohexyl-2-{4-[2-(4-piperidylmethoxy)phenoxy]phenyl}-benzimidazole-5-carboxylic acid hydrochloride], the IC50 stood at 240 nM.

Regarding `O=C(O)c1ccc2c(c1)nc(-c1ccc(Oc3cccc(OCC4CCNCC4)c3)cc1)n2C1CCCCC1` [Example 161, 1-cyclohexyl-2-{4-[3-(4-piperidylmethoxy)phenoxy]phenyl}-benzimidazole-5-carboxylic acid hydrochloride], the IC50 was found to be 62 nM.

Consider `CC(=O)N[C@@H](COc1ccc(-c2nc3cc(C(=O)O)ccc3n2C2CCCCC2)cc1)c1ccccc1` [Example 162, 2-{4-[(2R)-2-acetylamino-2-phenylethoxy]phenyl}-1-cyclohexylbenzimidazole-5-carboxylic acid], for which the IC50 came out at 430 nM.

Take `CC(C)=CCCOc1cccc(Oc2ccc(-c3nc4cc(C(=O)O)ccc4n3C3CCCCC3)cc2)c1` [Example 163, 1-cyclohexyl-2-{4-[3-(4-methyl-3-pentenyloxy)phenoxy]phenyl}-benzimidazole-5-carboxylic acid]: the IC50 came out at 150 nM.

Turning to `O=C(O)c1ccc2c(c1)nc(-c1ccc(OC[C@@H]3CCCN3Cc3ccccc3)cc1)n2C1CCCCC1` [Example 165, 2-{4-[{(2S)-1-benzyl-2-pyrrolidinyl}methoxy]phenyl}-1-cyclohexyl-benzimidazole-5-carboxylic acid hydrochloride], the IC50 turned out to be 580 nM.

In the case of `CSc1ccc(-c2ccc(Cl)cc2COc2ccc(-c3nc4cc(C(=O)O)ccc4n3C3CCCCC3)cc2)cc1` [Example 166, 2-{4-[3-chloro-6-(4-methylthiophenyl)benzyloxy]phenyl}-1-cyclohexylbenzimidazole-5-carboxylic acid], the IC50 was found to be 55 nM.

Regarding `CS(=O)(=O)c1ccc(-c2ccc(Cl)cc2COc2ccc(-c3nc4cc(C(=O)O)ccc4n3C3CCCCC3)cc2)cc1` [Example 167, 2-{4-[3-chloro-6-(4-methanesulfonylphenyl)benzyloxy]phenyl}-1-cyclohexylbenzimidazole-5-carboxylic acid], the IC50 was 33 nM.

Regarding `O=C(O)c1ccc2c(c1)nc(-c1ccc(OCc3cc(Cl)ccc3-c3cccs3)cc1)n2C1CCCCC1` [Example 168, 2-{4-[3-chloro-6-(2-thienyl)benzyloxy]phenyl}-1-cyclohexylbenzimidazole-5-carboxylic acid], the IC50 stood at 78 nM.

Take `O=C(O)c1ccc2c(c1)nc(-c1ccc(OCc3cc(Cl)ccc3-c3cccc(Cl)c3)cc1)n2C1CCCCC1` [Example 169, 2-{4-[3-chloro-6-(3-chlorophenyl)benzyloxy]phenyl}-1-cyclohexylbenzimidazole-5-carboxylic acid]: the half-maximal inhibitory concentration (IC50) was 150 nM.

Take `O=C(O)c1ccc2c(c1)nc(-c1ccc(OCc3cc(Cl)ccc3-c3cccnc3)cc1)n2C1CCCCC1` [Example 170, 2-{4-[3-chloro-6-(3-pyridyl)benzyloxy]phenyl}-1-cyclohexylbenzimidazole-5-carboxylic acid]: the IC50 was determined as 48 nM.

Turning to `O=C(O)c1ccc2c(c1)nc(-c1ccc(OCc3cc(Cl)ccc3-c3ccc(F)cc3)cc1)n2C1CCCCC1` [Example 171, 2-{4-[3-chloro-6-(4-fluorophenyl)benzyloxy]phenyl}-1-cyclohexylbenzimidazole-5-carboxylic acid], the IC50 was 50 nM.

With `O=C(O)c1ccc2c(c1)nc(-c1ccc(Oc3ccc(OCc4ccccc4)cc3)c(F)c1)n2C1CCCCC1` [Example 172, 2-[4-(4-benzyloxyphenoxy)-3-fluorophenyl]-1-cyclohexylbenzimidazole-5-carboxylic acid], the concentration for half-maximal inhibition (IC50) turned out to be 100 nM.

In the case of `O=C(O)c1ccc2c(c1)nc(-c1ccc(OCc3cc(Cl)ccc3Br)cc1)n2C1CCCCC1` [Example 173, 2-[4-(2-bromo-5-chlorobenzyloxy)phenyl]-1-cyclohexylbenzimidazole-5-carboxylic acid], the IC50 is 140 nM.

Take `O=C(O)c1ccc2c(c1)nc(-c1ccc(OCc3cc(Cl)ccc3-c3ccc(Cl)cc3)cc1F)n2C1CCCCC1` [Example 174, 2-{4-[3-chloro-6-(4-chlorophenyl)benzyloxy]-2-fluorophenyl}-1-cyclohexylbenzimidazole-5-carboxylic acid]: the IC50 stood at 30 nM.

As to `CC(=O)N1CCC(COc2ccccc2Oc2ccc(-c3nc4cc(C(=O)O)ccc4n3C3CCCCC3)cc2)CC1` [Example 175, 2-{4-[2-{(1-acetyl-4-piperidyl)methoxy}phenoxy]phenyl}-1-cyclohexylbenzimidazole-5-carboxylic acid], the IC50 was 290 nM.

As for `CC(=O)N1CCC(COc2cccc(Oc3ccc(-c4nc5cc(C(=O)O)ccc5n4C4CCCCC4)cc3)c2)CC1` [Example 176, 2-{4-[3-{(1-acetyl-4-piperidyl)methoxy}phenoxy]phenyl}-1-cyclohexylbenzimidazole-5-carboxylic acid], the IC50 came to 53 nM.

`C#CCOc1cccc(Oc2ccc(-c3nc4cc(C(=O)O)ccc4n3C3CCCCC3)cc2)c1` [Example 177, 1-cyclohexyl-2-{4-[3-(2-propynyloxy)phenoxy]phenyl}benzimidazole-5-carboxylic acid]: the IC50 stood at 77 nM.

Consider `O=C(O)c1ccc2c(c1)nc(-c1ccc(Oc3cccc(OCc4cccnc4)c3)cc1)n2C1CCCCC1` [Example 178, 1-cyclohexyl-2-{4-[3-(3-pyridylmethoxy)phenoxy]phenyl}-benzimidazole-5-carboxylic acid], for which the IC50 is 52 nM.

On to `COc1cc(OCc2ccccc2)ccc1-c1nc2cc(C(=O)O)ccc2n1C1CCCCC1` [Example 179, 2-(4-benzyloxy-2-methoxyphenyl)-1-cyclohexylbenzimidazole-5-carboxylic acid], for which the IC50 turned out to be 630 nM.

Turning to `COc1ccc(Br)c(COc2ccc(-c3nc4cc(C(=O)O)ccc4n3C3CCCCC3)cc2)c1` [Example 180, 2-[4-(2-bromo-5-methoxybenzyloxy)phenyl]-1-cyclohexylbenzimidazole-5-carboxylic acid], the IC50 came out at 110 nM.

As for `O=C(O)c1ccc2c(c1)nc(-c1ccc(OC(C(=O)O)(c3ccccc3)c3ccccc3)cc1)n2C1CCCCC1` [Example 181, 2-[4-(carboxydiphenylmethoxy)phenyl]-1-cyclohexylbenzimidazole-5-carboxylic acid], the 50% inhibitory concentration (IC50) came out at 710 nM.

Turning to `O=C(O)c1ccc2c(c1)nc(-c1ccc(OCc3cc([N+](=O)[O-])ccc3-c3ccc(Cl)cc3)cc1)n2C1CCCCC1` [Example 182, 2-{4-[2-(4-chlorophenyl)-5-nitrobenzyloxy]phenyl}-1-cyclohexylbenzimidazole-5-carboxylic acid], the IC50 was found to be 21 nM.

Consider `O=C(O)c1ccc(-c2ccc(Cl)cc2COc2ccc(-c3nc4cc(C(=O)O)ccc4n3C3CCCCC3)cc2)cc1` [Example 184, 2-{4-[2-(4-carboxyphenyl)-5-chlorobenzyloxy]phenyl}-1-cyclohexylbenzimidazole-5-carboxylic acid], for which the IC50 amounted to 18 nM.

For the compound `O=C(O)c1ccc2c(c1)nc(-c1ccc(OC[C@@H]3CCCN3C(=O)OCc3ccccc3)cc1)n2C1CCCCC1` [Example 185, 2-{4-[{(2S)-1-benzyloxycarbonyl-2-pyrrolidinyl}methoxy]phenyl}-1-cyclohexylbenzimidazole-5-carboxylic acid], the IC50 amounted to 110 nM.

As for `O=C(O)c1ccc2c(c1)nc(-c1ccc(OCc3ccccc3-c3ccc(C(F)(F)F)cc3)cc1Cl)n2C1CCCCC1` [Example 186, 2-{2-chloro-4-[2-(4-trifluoromethylphenyl)benzyloxy]phenyl}-1-cyclohexylbenzimidazole-5-carboxylic acid], the IC50 is 370 nM.

Turning to `O=C(O)c1ccc2c(c1)nc(-c1ccc(Oc3cccc(OCc4ccccn4)c3)cc1)n2C1CCCCC1` [Example 187, 1-cyclohexyl-2-{4-[3-(2-pyridylmethoxy)phenoxy]phenyl}-benzimidazole-5-carboxylic acid], the IC50 was found to be 56 nM.

With `O=C(O)c1ccc2c(c1)nc(-c1ccc(OCc3cc(F)ccc3-c3ccc(Cl)cc3)cc1)n2C1CCCCC1` [Example 188, 2-{4-[2-(4-chlorophenyl)-5-fluorobenzyloxy]phenyl}-1-cyclohexylbenzimidazole-5-carboxylic acid], the IC50 came out at 38 nM.

In the case of `O=C(O)c1ccc(-c2ccc(Cl)cc2)c(COc2ccc(-c3nc4cc(C(=O)O)ccc4n3C3CCCCC3)cc2)c1` [Example 189, 2-{4-[3-carboxy-6-(4-chlorophenyl)benzyloxy]phenyl}-1-cyclohexylbenzimidazole-5-carboxylic acid], the IC50 was found to be 17 nM.

For the compound `CN(C)C(=O)COc1ccccc1Oc1ccc(-c2nc3cc(C(=O)O)ccc3n2C2CCCCC2)cc1` [Example 191, 1-cyclohexyl-2-{4-[2-(dimethylcarbamoylmethoxy)phenoxy]-phenyl}benzimidazole-5-carboxylic acid], the IC50 was determined as 430 nM.
